Test results: patent US20120121591A1 (priority 2009, published 2012)

Columns and labels:
Assay type in all cases: cell-based
hKv1.3 = hKv1.3 (Homo sapiens, UniProt P22001); experiment: cell-based; settings: Kv1.3 (IWQ) IC50 (nM, Avg)
[1] = system: IFN-g secretion from T cells in human whole blood; settings: read-out: WB (IFNg) IC50 (nM, Avg)
[2] = system: IL-2 secretion from T cells in human whole blood; settings: read-out: WB (IL-2) IC50 (nM, Avg)

Sequence of hKv1.3 (P22001 whole entry): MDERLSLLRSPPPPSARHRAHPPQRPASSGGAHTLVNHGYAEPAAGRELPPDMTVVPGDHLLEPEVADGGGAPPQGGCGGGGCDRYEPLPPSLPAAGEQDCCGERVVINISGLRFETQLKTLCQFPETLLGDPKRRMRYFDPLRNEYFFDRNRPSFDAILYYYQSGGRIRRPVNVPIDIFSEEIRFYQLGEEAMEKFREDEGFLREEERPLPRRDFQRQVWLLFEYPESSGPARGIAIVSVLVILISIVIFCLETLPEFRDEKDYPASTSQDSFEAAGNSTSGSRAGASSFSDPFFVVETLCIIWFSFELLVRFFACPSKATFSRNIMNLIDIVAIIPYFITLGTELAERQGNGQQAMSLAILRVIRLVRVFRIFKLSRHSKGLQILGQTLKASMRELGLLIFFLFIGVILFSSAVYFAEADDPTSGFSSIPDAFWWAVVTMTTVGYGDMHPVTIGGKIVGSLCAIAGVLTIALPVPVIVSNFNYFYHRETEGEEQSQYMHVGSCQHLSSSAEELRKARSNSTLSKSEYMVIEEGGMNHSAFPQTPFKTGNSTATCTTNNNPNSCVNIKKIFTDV

Row | Compound | IC50 (hKv1.3) [nM] | IC50 [1] [nM] | IC50 [2] [nM]
1 | CC[C@H](C)[C@@H]1NC(=O)[C@@H](NC(=O)[C@H](CO)NC(=O)[C@@H](N)Cc2cccc3ccccc23)CSSC[C@@H](C(=O)O)NC(=O)[C@H]([C@@H](C)O)NC(=O)CNC(=O)[C@@H]2CSSC[C@@H]3NC(=O)[C@H](CCC(N)=O)NC(=O)[C@H](Cc4ccccc4)NC(=O)[C@H](C)NC(=O)[C@H]([C@@H](C)O)NC(=O)[C@H](CSSC[C@H](NC(=O)[C@H](Cc4ccccc4)NC(=O)[C@H](CO)NC(=O)[C@H](CC(C)C)NC(=O)[C@H](CCCNC(=N)N)NC(=O)[C@H](Cc4ccc(O)cc4)NC(=O)[C@H](CCCCN)NC(=O)[C@H](CCSC)NC(=O)[C@H](CO)NC(=O)[C@H](Cc4c[nH]cn4)NC(=O)[C@H](CCCCN)NC3=O)C(=O)N[C@@H](CCCNC(=N)N)C(=O)N[C@@H](CCCCN)C(=O)N[C@@H]([C@@H](C)O)C(=O)N2)NC(=O)[C@H](CCCNC(=N)N)NC(=O)[C@H](CO)NC(=O)[C@H](CCCCN)NC(=O)[C@@H]2CCCN2C(=O)[C@H]([C@@H](C)CC)NC(=O)[C@H]([C@@H](C)O)NC(=O)[C@H](CC(=O)O)NC1=O [[1-Nal1]ShK] | 0.225 | 0.247 | 0.222
2 | CC[C@H](C)[C@@H]1NC(=O)[C@@H](NC(=O)[C@H](Cc2cccc3ccccc23)NC(=O)[C@@H](N)CCCNC(=N)N)CSSC[C@@H](C(=O)O)NC(=O)[C@H]([C@@H](C)O)NC(=O)CNC(=O)[C@@H]2CSSC[C@@H]3NC(=O)[C@H](CCC(N)=O)NC(=O)[C@H](Cc4ccccc4)NC(=O)[C@H](C)NC(=O)[C@H]([C@@H](C)O)NC(=O)[C@H](CSSC[C@H](NC(=O)[C@H](Cc4ccccc4)NC(=O)[C@H](CO)NC(=O)[C@H](CC(C)C)NC(=O)[C@H](CCCNC(=N)N)NC(=O)[C@H](Cc4ccc(O)cc4)NC(=O)[C@H](CCCCN)NC(=O)[C@H](CCSC)NC(=O)[C@H](CO)NC(=O)[C@H](Cc4c[nH]cn4)NC(=O)[C@H](CCCCN)NC3=O)C(=O)N[C@@H](CCCNC(=N)N)C(=O)N[C@@H](CCCCN)C(=O)N[C@@H]([C@@H](C)O)C(=O)N2)NC(=O)[C@H](CCCNC(=N)N)NC(=O)[C@H](CO)NC(=O)[C@H](CCCCN)NC(=O)[C@@H]2CCCN2C(=O)[C@H]([C@@H](C)CC)NC(=O)[C@H]([C@@H](C)O)NC(=O)[C@H](CC(=O)O)NC1=O [[1-Nal2]ShK] | 0.25 | 0.258 | 0.223
3 | CC[C@H](C)[C@@H]1NC(=O)[C@H]([C@@H](C)O)NC(=O)[C@H](CC(=O)O)NC(=O)[C@H](Cc2cccc3ccccc23)NC(=O)[C@@H](NC(=O)[C@H](CO)NC(=O)[C@@H](N)CCCNC(=N)N)CSSC[C@@H](C(=O)O)NC(=O)[C@H]([C@@H](C)O)NC(=O)CNC(=O)[C@@H]2CSSC[C@@H]3NC(=O)[C@H](CCC(N)=O)NC(=O)[C@H](Cc4ccccc4)NC(=O)[C@H](C)NC(=O)[C@H]([C@@H](C)O)NC(=O)[C@H](CSSC[C@H](NC(=O)[C@H](Cc4ccccc4)NC(=O)[C@H](CO)NC(=O)[C@H](CC(C)C)NC(=O)[C@H](CCCNC(=N)N)NC(=O)[C@H](Cc4ccc(O)cc4)NC(=O)[C@H](CCCCN)NC(=O)[C@H](CCSC)NC(=O)[C@H](CO)NC(=O)[C@H](Cc4c[nH]cn4)NC(=O)[C@H](CCCCN)NC3=O)C(=O)N[C@@H](CCCNC(=N)N)C(=O)N[C@@H](CCCCN)C(=O)N[C@@H]([C@@H](C)O)C(=O)N2)NC(=O)[C@H](CCCNC(=N)N)NC(=O)[C@H](CO)NC(=O)[C@H](CCCCN)NC(=O)[C@@H]2CCCN2C1=O [[1-Nal4]ShK] | 0.15 | 0.317 | 0.274
4 | CC[C@H](C)[C@@H]1NC(=O)[C@@H](NC(=O)[C@H](CO)NC(=O)[C@@H](N)CCCNC(=N)N)CSSC[C@@H](C(=O)O)NC(=O)[C@H]([C@@H](C)O)NC(=O)CNC(=O)[C@@H]2CSSC[C@@H]3NC(=O)[C@H](CCC(N)=O)NC(=O)[C@H](Cc4ccccc4)NC(=O)[C@H](C)NC(=O)[C@H]([C@@H](C)O)NC(=O)[C@H](CSSC[C@H](NC(=O)[C@H](Cc4ccccc4)NC(=O)[C@H](CO)NC(=O)[C@H](CC(C)C)NC(=O)[C@H](CCCNC(=N)N)NC(=O)[C@H](Cc4ccc(O)cc4)NC(=O)[C@H](CCCCN)NC(=O)[C@H](CCSC)NC(=O)[C@H](CO)NC(=O)[C@H](Cc4c[nH]cn4)NC(=O)[C@H](CCCCN)NC3=O)C(=O)N[C@@H](CCCNC(=N)N)C(=O)N[C@@H](CCCCN)C(=O)N[C@@H]([C@@H](C)O)C(=O)N2)NC(=O)[C@H](CCCNC(=N)N)NC(=O)[C@H](CO)NC(=O)[C@H](CCCCN)NC(=O)[C@@H]2CCCN2C(=O)[C@H]([C@@H](C)CC)NC(=O)[C@H]([C@@H](C)O)NC(=O)[C@H](Cc2cccc3ccccc23)NC1=O [[1-Nal5]ShK] | 3.3 | 31.9 | 70.4
5 | CC[C@H](C)[C@@H]1NC(=O)[C@@H](NC(=O)[C@H](CO)NC(=O)[C@@H](N)CCCNC(=N)N)CSSC[C@@H](C(=O)O)NC(=O)[C@H]([C@@H](C)O)NC(=O)CNC(=O)[C@@H]2CSSC[C@@H]3NC(=O)[C@H](CCC(N)=O)NC(=O)[C@H](Cc4ccccc4)NC(=O)[C@H](C)NC(=O)[C@H]([C@@H](C)O)NC(=O)[C@H](CSSC[C@H](NC(=O)[C@H](Cc4ccccc4)NC(=O)[C@H](CO)NC(=O)[C@H](CC(C)C)NC(=O)[C@H](CCCNC(=N)N)NC(=O)[C@H](Cc4ccc(O)cc4)NC(=O)[C@H](CCCCN)NC(=O)[C@H](CCSC)NC(=O)[C@H](CO)NC(=O)[C@H](Cc4c[nH]cn4)NC(=O)[C@H](CCCCN)NC3=O)C(=O)N[C@@H](CCCNC(=N)N)C(=O)N[C@@H](CCCCN)C(=O)N[C@@H]([C@@H](C)O)C(=O)N2)NC(=O)[C@H](CCCNC(=N)N)NC(=O)[C@H](CO)NC(=O)[C@H](CCCCN)NC(=O)[C@@H]2CCCN2C(=O)[C@H]([C@@H](C)CC)NC(=O)[C@H](Cc2cccc3ccccc23)NC(=O)[C@H](CC(=O)O)NC1=O [[1-Nal6]ShK] | 0.15 | 0.962 | 0.86
6 | CC[C@H](C)[C@@H]1NC(=O)[C@@H](NC(=O)[C@H](CO)NC(=O)[C@@H](N)CCCNC(=N)N)CSSC[C@@H](C(=O)O)NC(=O)[C@H]([C@@H](C)O)NC(=O)CNC(=O)[C@@H]2CSSC[C@@H]3NC(=O)[C@H](CCC(N)=O)NC(=O)[C@H](Cc4ccccc4)NC(=O)[C@H](C)NC(=O)[C@H]([C@@H](C)O)NC(=O)[C@H](CSSC[C@H](NC(=O)[C@H](Cc4ccccc4)NC(=O)[C@H](CO)NC(=O)[C@H](CC(C)C)NC(=O)[C@H](CCCNC(=N)N)NC(=O)[C@H](Cc4ccc(O)cc4)NC(=O)[C@H](CCCCN)NC(=O)[C@H](CCSC)NC(=O)[C@H](CO)NC(=O)[C@H](Cc4c[nH]cn4)NC(=O)[C@H](CCCCN)NC3=O)C(=O)N[C@@H](CCCNC(=N)N)C(=O)N[C@@H](CCCCN)C(=O)N[C@@H]([C@@H](C)O)C(=O)N2)NC(=O)[C@H](CCCNC(=N)N)NC(=O)[C@H](CO)NC(=O)[C@H](CCCCN)NC(=O)[C@@H]2CCCN2C(=O)[C@H](Cc2cccc3ccccc23)NC(=O)[C@H]([C@@H](C)O)NC(=O)[C@H](CC(=O)O)NC1=O [[1-Nal7]ShK] | 0.699 | 18 | 11.6
7 | CC[C@H](C)[C@@H]1NC(=O)[C@@H](NC(=O)[C@H](CO)NC(=O)[C@@H](N)CCCNC(=N)N)CSSC[C@@H](C(=O)O)NC(=O)[C@H]([C@@H](C)O)NC(=O)CNC(=O)[C@@H]2CSSC[C@@H]3NC(=O)[C@H](CCC(N)=O)NC(=O)[C@H](Cc4ccccc4)NC(=O)[C@H](C)NC(=O)[C@H]([C@@H](C)O)NC(=O)[C@H](CSSC[C@H](NC(=O)[C@H](Cc4ccccc4)NC(=O)[C@H](CO)NC(=O)[C@H](CC(C)C)NC(=O)[C@H](CCCNC(=N)N)NC(=O)[C@H](Cc4ccc(O)cc4)NC(=O)[C@H](CCCCN)NC(=O)[C@H](CCSC)NC(=O)[C@H](CO)NC(=O)[C@H](Cc4c[nH]cn4)NC(=O)[C@H](CCCCN)NC3=O)C(=O)N[C@@H](CCCNC(=N)N)C(=O)N[C@@H](CCCCN)C(=O)N[C@@H]([C@@H](C)O)C(=O)N2)NC(=O)[C@H](CCCNC(=N)N)NC(=O)[C@H](Cc2cccc3ccccc23)NC(=O)[C@H](CCCCN)NC(=O)[C@@H]2CCCN2C(=O)[C@H]([C@@H](C)CC)NC(=O)[C@H]([C@@H](C)O)NC(=O)[C@H](CC(=O)O)NC1=O [[1-Nal10]ShK] | 0.206 | 0.255 | 0.205
8 | CC[C@H](C)[C@@H]1NC(=O)[C@@H](NC(=O)[C@H](CO)NC(=O)[C@@H](N)CCCNC(=N)N)CSSC[C@@H](C(=O)O)NC(=O)[C@H]([C@@H](C)O)NC(=O)CNC(=O)[C@@H]2CSSC[C@@H]3NC(=O)[C@H](CCC(N)=O)NC(=O)[C@H](Cc4ccccc4)NC(=O)[C@H](C)NC(=O)[C@H]([C@@H](C)O)NC(=O)[C@H](CSSC[C@H](NC(=O)[C@H](Cc4ccccc4)NC(=O)[C@H](CO)NC(=O)[C@H](CC(C)C)NC(=O)[C@H](CCCNC(=N)N)NC(=O)[C@H](Cc4ccc(O)cc4)NC(=O)[C@H](CCCCN)NC(=O)[C@H](CCSC)NC(=O)[C@H](CO)NC(=O)[C@H](Cc4c[nH]cn4)NC(=O)[C@H](CCCCN)NC3=O)C(=O)N[C@@H](CCCNC(=N)N)C(=O)N[C@@H](CCCCN)C(=O)N[C@@H]([C@@H](C)O)C(=O)N2)NC(=O)[C@H](Cc2cccc3ccccc23)NC(=O)[C@H](CO)NC(=O)[C@H](CCCCN)NC(=O)[C@@H]2CCCN2C(=O)[C@H]([C@@H](C)CC)NC(=O)[C@H]([C@@H](C)O)NC(=O)[C@H](CC(=O)O)NC1=O [[1-Nal11]ShK] | 0.922 | 1.65 | 1.14
9 | CC[C@H](C)[C@@H]1NC(=O)[C@@H](NC(=O)[C@H](CO)NC(=O)[C@@H](N)CCCNC(=N)N)CSSC[C@@H](C(=O)O)NC(=O)[C@H]([C@@H](C)O)NC(=O)CNC(=O)[C@@H]2CSSC[C@@H]3NC(=O)[C@H](CCC(N)=O)NC(=O)[C@H](Cc4cccc5ccccc45)NC(=O)[C@H](C)NC(=O)[C@H]([C@@H](C)O)NC(=O)[C@H](CSSC[C@H](NC(=O)[C@H](Cc4ccccc4)NC(=O)[C@H](CO)NC(=O)[C@H](CC(C)C)NC(=O)[C@H](CCCNC(=N)N)NC(=O)[C@H](Cc4ccc(O)cc4)NC(=O)[C@H](CCCCN)NC(=O)[C@H](CCSC)NC(=O)[C@H](CO)NC(=O)[C@H](Cc4c[nH]cn4)NC(=O)[C@H](CCCCN)NC3=O)C(=O)N[C@@H](CCCNC(=N)N)C(=O)N[C@@H](CCCCN)C(=O)N[C@@H]([C@@H](C)O)C(=O)N2)NC(=O)[C@H](CCCNC(=N)N)NC(=O)[C@H](CO)NC(=O)[C@H](CCCCN)NC(=O)[C@@H]2CCCN2C(=O)[C@H]([C@@H](C)CC)NC(=O)[C@H]([C@@H](C)O)NC(=O)[C@H](CC(=O)O)NC1=O [[1-Nal15]ShK] | 0.072 | 0.291 | 0.184
